Data reported in paper PMC9487190 (Parasitology research, 2022).

Legend:
[1] = tested on: S. mansoni miracidia; details: exogenously added, 50 μM; ref Taft et al., 2010; cited from earlier work
[2] = tested on: protoscoleces of E. granulosus; details: 100 μM; ref Camicia et al., 2013; Herz and Brehm, 2021; cited from earlier work
[3] = molecular target: T1, EgSERT (Echinococcus granulosus, UniProt W6UF91); assay type: cell-based; details: at around 1 μM
[4] = molecular target: T1, EgSERT; assay type: cell-based; details: 50 nM radiolabeled substrate, 10 min, room temperature, COS-7 cells
[5] = tested on: human cystic echinococcosis (CE); details: ref Gottstein et al., 2015; Hemphill et al., 2014; cited from earlier work
[6] = tested on: E. multilocularis metacestode vesicles and primary cells; details: ref Herz and Brehm (2021), cited from earlier work
[7] = molecular target: T1, EgSERT; assay type: cell-based; details: COS-7 cells, 15 nM – 10 μM serotonin, 10 min

For `CN(C)CCCC1(c2ccc(F)cc2)OCc2cc(C#N)ccc21` (stereo not drawn) [citalopram], the “effect on miracidial transformation rates” value [1] is listed as “detrimental effect”, the “effect on motility and development of protoscoleces” value [2] is listed as “strong inhibitory effect” and the “inhibition of serotonin transport by EgSERT” value [3] is listed as “almost complete inhibition”.
For `NCCCC(=O)O` [GABA], the “transport of radiolabeled substrate by EgSERT compared with background” value (shortened to “transport … compared with background”) [4] was “does not transport”.
For `CCCSc1ccc2nc(NC(=O)OC)[nH]c2c1` [ABZ, albendazole], the “share of CE cases in which treatment is ineffective” value [5] is given as ~ 40%.
With `NCC(=O)O` [glycine] the “transport … compared with background” value [4] was “does not transport”.
For `NCCc1c[nH]c2ccc(O)cc12` [serotonin, 5-hydroxytryptamine], the “metacestode vesicle formation and cell proliferation from primary cells” value ([6]; exogenous, dose dependent) is given as “induces metacestode vesicle formation and cell proliferation”, the “transport … compared with background” value [4] is given as “significantly higher accumulation” and the “Vmax of serotonin uptake” value [7] is given as 615 ± 33 fmol/min/well.
With `N[C@@H](CCC(=O)O)C(=O)O` [glutamate, glutamic acid] the “transport … compared with background” value [4] was “does not transport”.
In the case of `Fc1ccc([C@@H]2CCNC[C@H]2COc2ccc3c(c2)OCO3)cc1` [paroxetine], the “metacestode vesicle damage and viability of primary cell culture” value ([6]; 100 μM) is given as “significant metacestode vesicle damage and cell viability reduction”.
With `NCCc1ccc(O)c(O)c1` [dopamine] the “transport … compared with background” value [4] was “does not transport”.
